This note sets out measurements from PubChem BioAssay AID2691 (Broad Institute, 2010).

Values after ≈ are worked out from the molar mass of the structure shown. Records with an inconclusive call do not appear. Active and inactive are the calls of the source.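 How the source made its calls: active means dose-dependent viability drop with mean lowest dose clearly under solvent controls below the top tested dose; inconclusive means self-fluorescent without titration, or replicates split around top dose; inactive means no such drop up to the top dose.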

The subject of this experiment is NIH 3T3 viability, Alamar Blue fluorescence, 3 days. Put plainly: mammalian fibroblast cytotoxicity – cell-based, Alamar Blue fluorescence, MIC, cytotoxicity control for polyadenylation inhibitor project, dose response (AID 2691).
Regarding `N#CC1(C#N)C2=C(CCCC2)NC(c2ccccc2)C1(C#N)C#N` (stereo not given), the MIC was > 25 µM (inactive).

For the compound `COc1cc(/C=C2\SC(=S)N(NC(=O)c3ccncc3)C2=O)ccc1O`, the MIC was > 25 µM (inactive).

For `Cc1ccc(C(=O)c2no[n+]([O-])c2C(=O)c2ccc(C)cc2)cc1`, the MIC was 1.6 µM (≈ 0.516 µg/mL).

As for `Cc1ccc(-c2nn3c(C)nnc3s2)cc1NC(=O)CSc1ccc(Cl)cc1`, the MIC was > 25 µM (inactive).

`CC(=O)c1ccc(Sc2ccccc2)c([N+](=O)[O-])c1`: the MIC is > 25 µM (inactive).

`Cc1ccc2nc(/C(C#N)=C/c3ccc([N+](=O)[O-])o3)[nH]c2c1`: the MIC is 0.8 µM (≈ 0.235 µg/mL).

Regarding `O=C(COC(=O)Cc1ccc(S(=O)(=O)N2CCOCC2)s1)NCc1ccc(Cl)cc1`, the MIC was > 25 µM (inactive).

As for `CCN1/C(=C\C=C\c2sc3ccccc3[n+]2CC)Sc2ccccc21`, the MIC was > 25 µM (inactive).

Consider `COc1cc(/C=C2\SC(=S)N(NC(=O)c3cccnc3)C2=O)ccc1O`, for which the MIC was > 25 µM (inactive).

As to `COc1cc(/C=C2/CC/C(=C/c3ccc(O)c(OC)c3)C2=O)ccc1O`, the MIC is > 25 µM (inactive).

Turning to `O=C(Oc1c(-c2ccccc2)c(=O)n2c3c(cccc13)CC2)c1cccc([N+](=O)[O-])c1`, the MIC was > 25 µM (inactive).

As for `N#C/C(=C/c1ccc([N+](=O)[O-])o1)c1nc2ccccc2[nH]1`, the MIC was 1.6 µM (≈ 0.448 µg/mL).

Regarding `Cc1ccc(Nc2c(-c3ccc(C)o3)nc3ncccn23)cc1`, the MIC was > 25 µM (inactive).

On to `CCOc1cc(/C=C2\N=C(SC(C)C(N)=O)N(c3ccc(OC(F)F)cc3)C2=O)ccc1O` (stereo not given), for which the MIC was > 25 µM (inactive).

On to `Nc1ncnc2c1ncn2C1OC(CO)CC1O` (stereo not given), for which the MIC is > 25 µM (inactive).
